Converted amounts (≈) assume the structure as drawn.
Experiments:
[S531L]β-RNAP = [S531L]β-RNAP (Escherichia coli, UniProt P0A800+P0A8T7+P0A8V2, S531L); test: biochemical; set-up: species or system E. coli
[1] = tested on: E. coli MB5746 RpoZ (RNAP ω subunit) Δ23–91 (frameshift) mutant; test: Broth microdilution MIC on MRL-436-resistant mutant; format: cell-based; conditions: RpoZ Δ23–91 (frameshift) mutant of MB5746
[2] = tested on: E. coli MB5746 RpoZ (RNAP ω subunit) Δ24–91 (frameshift) mutant; test: as above; format: cell-based; conditions: RpoZ Δ24–91 (frameshift) mutant of MB5746
[3] = target: RNAP (wild-type, co-expressed) (Escherichia coli, UniProt P0A800+P0A8T7+P0A8V2); test: biochemical; set-up: species or system E. coli
[4] = tested on: E. coli D21f2tolC Rif^R-D516V (rfa tolC rpoB-D516V); test: Broth microdilution MIC; format: cell-based; conditions: Escherichia coli
[5] = tested on: E. coli MB5746 RpoC (RNAP β′ subunit) D622G mutant; test: Broth microdilution MIC on MRL-436-resistant mutant; format: cell-based; conditions: RpoC D622G mutant of MB5746
[6] = tested on: E. coli MB5746 RpoZ (RNAP ω subunit) Δ21–91 (frameshift) mutant; test: as above; format: cell-based; conditions: RpoZ Δ21–91 (frameshift) mutant of MB5746
RNAP (reconstituted) = RNAP (reconstituted) (Escherichia coli, UniProt P0A800+P0A8T7+P0A8V2); test: biochemical; format: biochemical, E. coli
[D516V]β-RNAP = [D516V]β-RNAP (Escherichia coli, UniProt P0A800+P0A8T7+P0A8V2, D516V); test: biochemical; set-up: species or system E. coli
[7] = tested on: E. coli MB5746 (lpxC tolC); test: Broth microdilution MIC; format: cell-based; conditions: Escherichia coli
[D622G]β′-RNAP = Fluorescence-detected RNAP inhibition assay; format: biochemical, E. coli; conditions: enzyme: [D622G]β′-RNAP vs RNAP (co-expressed)
[8] = tested on: E. coli MB5746 RpoZ (RNAP ω subunit) Δ1–91 (deletion); test: Broth microdilution MIC on constructed ΔrpoZ strain; format: cell-based; conditions: RpoZ Δ1–91 (deletion) of MB5746
[9] = tested on: E. coli D21f2tolC Rif^R-H526D (rfa tolC rpoB-H526D); test: Broth microdilution MIC; format: cell-based; conditions: Escherichia coli
[10] = tested on: E. coli D21f2tolC Rif^R-S531L (rfa tolC rpoB-S531L); test: Broth microdilution MIC; format: cell-based; conditions: Escherichia coli
[H526D]β-RNAP = [H526D]β-RNAP (Escherichia coli, UniProt P0A800+P0A8T7+P0A8V2, H526D); test: biochemical; set-up: species or system E. coli
[11] = tested on: E. coli MB5746 RpoZ (RNAP ω subunit) Δ35–91 (frameshift) mutant; test: Broth microdilution MIC on MRL-436-resistant mutant; format: cell-based; conditions: RpoZ Δ35–91 (frameshift) mutant of MB5746
Δω RNAP = format: biochemical, E. coli; conditions: enzyme: Δω RNAP vs RNAP (reconstituted)
E. coli RNAP core enzyme = E. coli RNAP core enzyme (Escherichia coli, UniProt P0A800+P0A8T7+P0A8V2); test: AS-MS; format: binding
RNAP = RNAP (Escherichia coli, UniProt P0A800+P0A8T7+P0A8V2); test: biochemical; set-up: species or system E. coli
[12] = tested on: E. coli D21f2tolC (rfa tolC); test: Broth microdilution MIC; format: cell-based; conditions: Escherichia coli
yeast invertase = yeast invertase (Saccharomyces cerevisiae, UniProt P00724); conditions: compound at 10 μM against 5μM invertase
[13] = tested on: E. coli MB5746 RpoZ (RNAP ω subunit) Δ13–91 (frameshift) mutant; test: Broth microdilution MIC on MRL-436-resistant mutant; format: cell-based; conditions: RpoZ Δ13–91 (frameshift) mutant of MB5746

SMILES: CO[C@H]1/C=C/O[C@@]2(C)Oc3c(C)c(O)c4c(O)c(c(/C=N/N5CCN(C)CC5)c(O)c4c3C2=O)NC(=O)/C(C)=C\C=C\[C@H](C)[C@H](O)[C@@H](C)[C@@H](O)[C@@H](C)[C@H](OC(C)=O)[C@@H]1C [Rif, rifampin]
- IC50 ([S531L]β-RNAP): 80000 nM
- resistance level (MIC/MICwild-type) [1]: 1
- resistance level (MIC/MICwild-type) [2]: 1
- IC50 [3]: 30 nM
- IC50 ratio (IC50/IC50wild-type) ([3]; enzyme: RNAP (co-expressed)): 1
- MIC [4]: 32 µg/mL (≈ 38.9 µM)
- resistance level (MIC/MICwild-type) [5]: 1
- resistance level (MIC/MICwild-type) [6]: 1
- IC50 (RNAP (reconstituted)): 40 nM
- IC50 ratio (IC50/IC50wild-type) (RNAP (reconstituted); enzyme: RNAP (reconstituted)): 1
- IC50 ([D516V]β-RNAP): 70000 nM
- MIC [7]: 0.5 µg/mL (≈ 0.608 µM)
- IC50 ratio (IC50/IC50wild-type) ([D622G]β′-RNAP): 1
- resistance level (MIC/MICwild-type) [8]: 1
- MIC [9]: 128 µg/mL (≈ 156 µM)
- MIC [10]: 64 µg/mL (≈ 77.8 µM)
- IC50 ([H526D]β-RNAP): > 100000 nM
- resistance level (MIC/MICwild-type) [11]: 1
- IC50 ratio (IC50/IC50wild-type) (Δω RNAP): 0.5
- Kd (E. coli RNAP core enzyme): < 2000 nM
- IC50 (RNAP): 20 nM
- MIC [12]: 0.5 µg/mL (≈ 0.608 µM)
- AS-MS signal against invertase (selectivity counter-screen) (yeast invertase): did not show an AS-MS signal
- resistance level (MIC/MICwild-type) [13]: 1

— paper PMC5800494 (ACS chemical biology, 2017)
